Experimental data taken from ChEMBL document CHEMBL5532651, “HDAC specificity and kinase off-targeting by purine-benzohydroxamate anti-hematological tumor agents” (Eur J Med Chem, 2024).
Calls of active or inactive are those of the source. No cut-off for these calls is given here.

Experiments:
MCF7 = test: cells; type: functional, cell-based; conditions: Homo sapiens
[1] = Selectivity index, ratio of IC50 for human HCT-116 cells to IC50 for human NAMALVA cells; type: functional
Jurkat [2] = test: Potency index, ratio of Vorinostat IC50 to test compound IC50 for human Jurkat cells assessed as cell growth inhibition incubated for 24 to 72 hrs by MTT assay; type: functional; conditions: time 24-72 hrs
U-937 [3] = test: Cytotoxicity against human U-937 cells assessed as cell growth inhibition incubated for 24 to 72 hrs by MTT assay; type: functional, cell-based; conditions: time lower 24.0 hrs, time upper […]
Jurkat [4] = test: Inhibition of cell proliferation of human Jurkat cells assessed as reduction in Ki-67 expression at IC50 measured after 48 hrs by flow cytometry; type: functional, cell-based
U-937 [5] = test: Inhibition of cell proliferation of human U-937 cells assessed as reduction in Ki-67 expression at IC50 measured after 48 hrs by flow cytometry; type: functional, cell-based
[6] = target: Tyrosine-protein kinase JAK3 (Homo sapiens, UniProt P52333); test: Inhibition of recombinant human JAK3 (781 to 1124 residues) in presence of ATP by ELISA
Sequence of Tyrosine-protein kinase JAK3 (P52333 whole entry, the tested form may be a part): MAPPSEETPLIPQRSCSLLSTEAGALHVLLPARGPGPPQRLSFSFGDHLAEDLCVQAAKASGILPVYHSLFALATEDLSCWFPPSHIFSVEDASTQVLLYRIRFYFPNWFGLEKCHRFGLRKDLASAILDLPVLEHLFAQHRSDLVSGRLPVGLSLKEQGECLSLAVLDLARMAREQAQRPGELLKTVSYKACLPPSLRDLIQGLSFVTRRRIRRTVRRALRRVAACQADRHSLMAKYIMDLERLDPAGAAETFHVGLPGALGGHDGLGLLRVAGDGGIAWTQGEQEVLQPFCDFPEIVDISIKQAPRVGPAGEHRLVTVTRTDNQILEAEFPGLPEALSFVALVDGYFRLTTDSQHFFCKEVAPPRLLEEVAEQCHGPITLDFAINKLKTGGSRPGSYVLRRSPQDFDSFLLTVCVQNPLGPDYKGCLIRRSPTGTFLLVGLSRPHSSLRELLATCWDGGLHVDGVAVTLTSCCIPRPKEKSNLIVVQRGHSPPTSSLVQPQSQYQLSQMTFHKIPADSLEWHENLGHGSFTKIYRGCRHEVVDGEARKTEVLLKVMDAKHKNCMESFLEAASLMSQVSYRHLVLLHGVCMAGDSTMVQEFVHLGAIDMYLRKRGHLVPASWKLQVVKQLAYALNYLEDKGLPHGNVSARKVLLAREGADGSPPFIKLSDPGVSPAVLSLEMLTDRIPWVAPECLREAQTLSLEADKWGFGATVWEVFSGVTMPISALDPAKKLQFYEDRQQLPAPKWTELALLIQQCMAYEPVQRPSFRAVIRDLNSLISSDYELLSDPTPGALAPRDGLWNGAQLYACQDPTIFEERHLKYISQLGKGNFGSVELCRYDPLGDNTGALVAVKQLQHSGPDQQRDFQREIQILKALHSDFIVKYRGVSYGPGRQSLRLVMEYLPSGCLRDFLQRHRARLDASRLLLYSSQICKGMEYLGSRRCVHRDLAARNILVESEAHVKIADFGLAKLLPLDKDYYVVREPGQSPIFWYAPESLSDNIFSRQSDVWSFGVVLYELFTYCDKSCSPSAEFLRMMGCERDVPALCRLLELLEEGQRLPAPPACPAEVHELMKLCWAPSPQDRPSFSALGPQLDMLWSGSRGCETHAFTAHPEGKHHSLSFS

Histone deacetylase 1 [7] = target: T1, Histone deacetylase 1 (Homo sapiens, UniProt Q13547); test: Inhibition of HDAC1 in human Jurkat cells assessed as increase in acetyl-alpha-tubulin level at IC50 incubated for 48 hrs by Western blot analysis; type: cell-based
T1 sequence (Q13547 whole entry): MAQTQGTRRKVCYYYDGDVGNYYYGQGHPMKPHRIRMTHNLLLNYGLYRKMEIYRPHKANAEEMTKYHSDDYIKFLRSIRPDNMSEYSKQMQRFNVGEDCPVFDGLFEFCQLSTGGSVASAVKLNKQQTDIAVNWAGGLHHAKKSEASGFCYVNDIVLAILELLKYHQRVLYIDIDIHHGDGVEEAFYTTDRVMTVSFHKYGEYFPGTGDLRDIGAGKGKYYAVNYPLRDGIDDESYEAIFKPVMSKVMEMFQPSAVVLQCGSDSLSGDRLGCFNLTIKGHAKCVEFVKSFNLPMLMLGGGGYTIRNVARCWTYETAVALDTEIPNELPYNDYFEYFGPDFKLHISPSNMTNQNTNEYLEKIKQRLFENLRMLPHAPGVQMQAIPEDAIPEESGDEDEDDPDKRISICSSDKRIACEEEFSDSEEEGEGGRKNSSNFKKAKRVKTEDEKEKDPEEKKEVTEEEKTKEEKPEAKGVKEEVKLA

Histone deacetylase 1 [8] = target: T1, Histone deacetylase 1; test: Inhibition of HDAC1 in human U-937 cells assessed as increase in acetyl-alpha-tubulin level at IC50 incubated for 48 hrs by Western blot analysis; type: cell-based
[9] = target: T2, Protein deacetylase HDAC6 (Homo sapiens) (UniProt Q9UBN7); test: Inhibition of HDAC6 in human Jurkat cells assessed as increase in acetyl-histone H3 level at IC50 incubated for 48 hrs by Western blot analysis; type: cell-based
T2 sequence (whole entry): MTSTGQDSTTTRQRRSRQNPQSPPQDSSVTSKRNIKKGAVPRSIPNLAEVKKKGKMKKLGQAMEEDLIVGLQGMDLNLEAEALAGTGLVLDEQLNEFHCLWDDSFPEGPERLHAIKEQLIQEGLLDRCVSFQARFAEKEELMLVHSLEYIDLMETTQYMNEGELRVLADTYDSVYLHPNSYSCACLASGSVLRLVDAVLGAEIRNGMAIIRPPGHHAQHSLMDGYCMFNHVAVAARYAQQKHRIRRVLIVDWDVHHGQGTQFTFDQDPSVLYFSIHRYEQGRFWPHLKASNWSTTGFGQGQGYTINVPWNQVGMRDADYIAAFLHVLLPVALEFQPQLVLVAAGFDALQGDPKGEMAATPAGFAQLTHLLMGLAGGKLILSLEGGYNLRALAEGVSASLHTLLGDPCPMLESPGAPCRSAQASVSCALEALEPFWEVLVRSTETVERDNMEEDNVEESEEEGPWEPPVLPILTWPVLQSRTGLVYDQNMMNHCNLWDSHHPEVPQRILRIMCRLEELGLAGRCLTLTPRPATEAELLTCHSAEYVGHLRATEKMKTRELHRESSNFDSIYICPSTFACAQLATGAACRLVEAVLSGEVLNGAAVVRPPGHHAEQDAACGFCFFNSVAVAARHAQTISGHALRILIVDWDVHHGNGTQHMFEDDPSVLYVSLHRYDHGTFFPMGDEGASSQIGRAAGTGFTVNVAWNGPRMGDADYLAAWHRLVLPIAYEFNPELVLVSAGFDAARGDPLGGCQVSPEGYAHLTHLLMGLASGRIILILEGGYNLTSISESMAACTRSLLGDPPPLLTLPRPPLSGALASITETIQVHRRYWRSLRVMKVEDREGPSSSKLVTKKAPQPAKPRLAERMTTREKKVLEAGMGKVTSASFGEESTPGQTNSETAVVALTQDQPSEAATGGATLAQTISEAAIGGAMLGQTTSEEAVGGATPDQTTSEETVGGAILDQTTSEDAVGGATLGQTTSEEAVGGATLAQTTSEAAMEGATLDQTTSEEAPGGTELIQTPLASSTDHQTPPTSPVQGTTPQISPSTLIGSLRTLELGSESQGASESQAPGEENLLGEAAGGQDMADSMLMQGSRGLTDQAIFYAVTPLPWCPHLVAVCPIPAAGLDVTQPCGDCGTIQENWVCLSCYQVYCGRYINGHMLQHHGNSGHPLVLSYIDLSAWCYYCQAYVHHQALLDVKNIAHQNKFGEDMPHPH

[10] = target: T2, Protein deacetylase HDAC6 (Homo sapiens); test: Inhibition of HDAC6 in human Jurkat cells assessed as increase in acetyl-alpha-tubulin level at IC50 incubated for 48 hrs by Western blot analysis; type: cell-based
[11] = target: T2, Protein deacetylase HDAC6 (Homo sapiens); test: Inhibition of HDAC6 in human NAMALVA cells assessed as increase in acetyl-alpha-tubulin level at IC50 incubated for 48 hrs by Western blot analysis; type: cell-based
[12] = target: Phosphatidylinositol 4,5-bisphosphate 3-kinase catalytic subunit delta isoform (Homo sapiens) (UniProt O00329); test: Inhibition of PI3Kd (unknown origin) at 100 uM preincubated for 20 mins followed by 33P-ATP addition measured after 2 hrs by HotSpot kinase assay relative to control; conditions: time 140.0 min
Sequence of Phosphatidylinositol 4,5-bisphosphate 3-kinase catalytic subunit delta isoform (Homo sapiens) (O00329 whole entry, canonical isoform): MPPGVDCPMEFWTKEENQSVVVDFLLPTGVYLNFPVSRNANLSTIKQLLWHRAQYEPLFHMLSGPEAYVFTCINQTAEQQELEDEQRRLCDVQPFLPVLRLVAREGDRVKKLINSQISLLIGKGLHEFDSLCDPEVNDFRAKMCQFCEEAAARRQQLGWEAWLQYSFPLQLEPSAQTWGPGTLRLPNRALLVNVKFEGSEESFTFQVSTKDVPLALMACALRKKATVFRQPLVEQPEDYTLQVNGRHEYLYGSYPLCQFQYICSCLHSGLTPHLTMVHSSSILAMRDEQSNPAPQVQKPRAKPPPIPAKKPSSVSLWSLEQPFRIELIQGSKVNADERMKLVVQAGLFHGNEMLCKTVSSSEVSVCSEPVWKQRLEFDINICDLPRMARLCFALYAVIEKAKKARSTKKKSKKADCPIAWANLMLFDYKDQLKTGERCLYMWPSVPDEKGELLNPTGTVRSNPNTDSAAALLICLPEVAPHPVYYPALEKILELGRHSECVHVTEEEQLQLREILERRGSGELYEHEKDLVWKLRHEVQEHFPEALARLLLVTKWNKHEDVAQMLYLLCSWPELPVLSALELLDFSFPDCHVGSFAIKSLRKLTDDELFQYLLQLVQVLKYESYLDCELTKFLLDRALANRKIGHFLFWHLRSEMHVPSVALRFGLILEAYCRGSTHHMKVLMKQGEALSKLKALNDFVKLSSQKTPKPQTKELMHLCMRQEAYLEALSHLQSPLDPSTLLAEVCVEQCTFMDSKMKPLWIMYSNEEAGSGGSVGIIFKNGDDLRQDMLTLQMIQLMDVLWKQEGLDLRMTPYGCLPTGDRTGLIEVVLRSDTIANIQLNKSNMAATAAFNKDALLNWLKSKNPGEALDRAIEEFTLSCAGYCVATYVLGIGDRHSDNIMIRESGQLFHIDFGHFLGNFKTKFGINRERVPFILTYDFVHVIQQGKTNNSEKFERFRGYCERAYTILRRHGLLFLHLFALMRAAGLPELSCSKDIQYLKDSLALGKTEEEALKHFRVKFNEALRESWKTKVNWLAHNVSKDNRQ

CYP1A2 = target: T3, CYP1A2 (Homo sapiens, UniProt P05177); test: Inhibition of CYP1A2 in liver microsomes (unknown origin) at 10 uM incubated for 10 mins relative to control; type: ADME, Microsome
T3 sequence (P05177 whole entry): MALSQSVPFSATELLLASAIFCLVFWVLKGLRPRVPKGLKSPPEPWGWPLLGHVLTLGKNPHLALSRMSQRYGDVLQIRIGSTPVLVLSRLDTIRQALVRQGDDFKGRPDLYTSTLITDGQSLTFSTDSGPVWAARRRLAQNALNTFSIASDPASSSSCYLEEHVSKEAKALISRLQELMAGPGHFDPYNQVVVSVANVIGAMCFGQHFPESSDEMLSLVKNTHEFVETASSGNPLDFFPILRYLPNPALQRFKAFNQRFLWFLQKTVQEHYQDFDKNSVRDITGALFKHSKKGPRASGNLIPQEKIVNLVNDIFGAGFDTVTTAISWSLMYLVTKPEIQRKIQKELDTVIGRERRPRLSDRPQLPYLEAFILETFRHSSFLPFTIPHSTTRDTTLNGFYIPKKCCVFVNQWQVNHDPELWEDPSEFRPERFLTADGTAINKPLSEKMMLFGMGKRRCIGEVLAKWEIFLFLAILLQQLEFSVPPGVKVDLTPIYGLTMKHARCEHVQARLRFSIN

CYP2C9 = CYP2C9 (Homo sapiens, UniProt P11712); test: Inhibition of CYP2C9 in liver microsomes (unknown origin) at 10 uM incubated for 10 mins relative to control; type: ADME, Microsome
Sequence of CYP2C9 (P11712 whole entry): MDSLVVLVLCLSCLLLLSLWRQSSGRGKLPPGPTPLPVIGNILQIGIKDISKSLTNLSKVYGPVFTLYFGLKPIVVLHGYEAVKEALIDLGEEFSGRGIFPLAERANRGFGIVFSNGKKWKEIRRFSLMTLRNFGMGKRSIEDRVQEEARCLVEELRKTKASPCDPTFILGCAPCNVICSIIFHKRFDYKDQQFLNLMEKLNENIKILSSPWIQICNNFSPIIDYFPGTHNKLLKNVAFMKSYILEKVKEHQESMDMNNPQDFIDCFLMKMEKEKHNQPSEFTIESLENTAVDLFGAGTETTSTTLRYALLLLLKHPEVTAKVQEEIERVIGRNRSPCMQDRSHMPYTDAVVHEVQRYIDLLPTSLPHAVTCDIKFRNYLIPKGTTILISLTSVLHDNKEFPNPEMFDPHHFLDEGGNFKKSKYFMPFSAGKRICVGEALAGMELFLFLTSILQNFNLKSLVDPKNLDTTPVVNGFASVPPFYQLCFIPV

NAMALVA [13] = test: cells; conditions: Homo sapiens
NAMALVA [14] = test: Cytotoxicity against human NAMALVA cells assessed as cell growth inhibition at 0.1 to 9.9 uM by MTT assay; type: functional, cell-based; conditions: dose 0.1-9.9 µM, time lower 24.0 hrs, time upper […], TDE = time-dependent effect

Structure (SMILES) | IC50 (MCF7) [µM] | Ratio IC50 [1] | Ratio IC50 (Jurkat [2]) | inhibition (U-937 [3]) | inhibition (Jurkat [4]) | inhibition (U-937 [5]) | IC50 [6] [µM] | inhibition (Histone deacetylase 1 [7]) | inhibition (Histone deacetylase 1 [8]) | inhibition [9] | inhibition [10] | inhibition [11] | inhibition [12] [%] | inhibition at 10 min, 10 µM (CYP1A2) [%] | inhibition at 10 min, 10 µM (CYP2C9) [%] | IC50 (NAMALVA [13]) [µM] | inhibition (NAMALVA [14])
O=C(NO)c1ccc(Cn2cnc3c(Nc4ccc(F)c(Cl)c4)ncnc32)cc1 | 9.3 | 83 | <=10 | Dose-Dependent Effect | Active | Active | 2.59 | Active | Active | Active | Active | Active | 51.2 | 46 | 52 | 0.04 | 
COc1ccc(Nc2ncnc3c2ncn3Cc2ccc(C(=O)NO)cc2)cc1 | 19.5 | 83 | <=10 | Dose-Dependent Effect | Active | Active |  | Active | Active | Active | Active | Active |  | 50 | 34 | 0.1 | Tde
